Measurements reported in publication PMC12339328, “Therapeutic effect and mechanism of gigantol on hyperuricemia” (Frontiers in Endocrinology, 2025).
“And” between values parts separate entries of the source, which are not always exact repeats. Equal entries are not always repeated.

Columns and labels:
[1] = tested on: GLUT9; experiment: GLUT9 protein expression in HK-2 cells (Western blot); conditions: HK-2; 阳性 = allopurinol 100 µmol/L; replicates 1-3
[2] = tested on: NLRP3; experiment: NLRP3 protein expression in HK-2 cells (Western blot); conditions: HK-2; 阳性 = allopurinol 100 µmol/L; replicates 1-3
[3] = tested on: GLUT9; experiment: GLUT9 protein expression in kidney of HUA mice (Western blot); type: in vivo; conditions: allopurinol 10 mg/kg, p > 0.05
[4] = Pharmacokinetics in rats (LC-MS/MS, WinNonlin); conditions: for MRT inf: MRT(0-∞); for Cmax: C max; for Tmax: T max
Protocol: Whole blood was taken into heparinized tubes at predefined time points (2, 5, 10, 20, and 30 min, and 1, 2, 4, 6, 8, and 12 h) after administration, and plasma was separated by centrifugation and stored at −20°C until testing. […] Whole blood was taken into heparinized tubes at predefined time points (2, 5, 10, 20, and 30 min, and 1, 2, 4, 6, 8, and 12 h) after administration, and plasma was separated by centrifugation and stored at −20°C until testing. […] Pharmacokinetic parameters were calculated by using the pharmacokinetics software WinNonlin 8.1.

[5] = tested on: Caspase-1; experiment: Caspase-1 protein expression in HK-2 cells (Western blot); conditions: HK-2; 阳性 = allopurinol 100 µmol/L; replicates 1-3
[6] = tested on: ASC; experiment: ASC protein expression in HK-2 cells (Western blot); conditions: HK-2; 阳性 = allopurinol 100 µmol/L; replicates 1-3
[7] = tested on: XOD; conditions: HUA cell model; allopurinol 100 μmol/L; vs model; p < 0.001
[8] = tested on: XOD
[9] = tested on: OAT1; experiment: OAT1 protein expression in HK-2 cells (Western blot); conditions: HK-2; 阳性 = allopurinol 100 µmol/L; replicates 1-3
[10] = tested on: OAT1; experiment: OAT1 protein expression in kidney of HUA mice (Western blot); conditions: allopurinol 10 mg/kg, p > 0.05
[11] = tested on: OAT3; experiment: OAT3 protein expression in kidney of HUA mice (Western blot); conditions: allopurinol 10 mg/kg, p > 0.05
[12] = tested on: OAT3; experiment: OAT3 protein expression in HK-2 cells (Western blot); conditions: HK-2; 阳性 = allopurinol 100 µmol/L; replicates 1-3
[13] = Sprague-Dawley, rat, plasma, iv, 5 mg/kg, rats, allopurinol intravenous 5 mg/kg, Average
[14] = Sprague-Dawley, rat, plasma, iv, 5 mg/kg, rats, allopurinol intravenous 5 mg/kg, individual rats
[15] = Sprague-Dawley, rat, plasma, po, 50 mg/kg, rats, allopurinol gavage 50 mg/kg, Average
[16] = Sprague-Dawley, rat, plasma, po, 50 mg/kg, rats, allopurinol gavage 50 mg/kg, individual rats
[17] = rats, allopurinol gavage 50 mg/kg, individual rats, 50 mg/kg
[18] = rats, allopurinol intravenous 5 mg/kg, individual rats, 5 mg/kg

With `Oc1ncnc2[nH]ncc12` [allopurinol] the “GLUT (GLUT9) protein expression, band value” [1] was 146.392 and 138.006 and 144.372, the “NLRP3 protein expression, band value” [2] was 163.939 and 177.621 and 186.105 and the “GLUT9 protein expression in kidney” value [3] was “did not show significant effects”. For the same compound, the AUC(0-t) ([4]; Sprague-Dawley, rat, plasma, iv, 5 mg/kg, AUC(0-t), rats, allopurinol intravenous 5 mg/kg, Average) was 179 ng·h/mL, the AUC(0-inf) [4, 13] was 209 ng·h/mL and the AUC(0-inf) [4, 14] was 170 ng·h/mL. For the same compound, the C0 ([4]; Sprague-Dawley, rat, plasma, iv, 5 mg/kg, C 0, rats, allopurinol intravenous 5 mg/kg, Average) was roughly 225 ng/mL, the C0 ([4]; Sprague-Dawley, rat, plasma, iv, 5 mg/kg, C 0, rats, allopurinol intravenous 5 mg/kg, individual rats) was 169 ng/mL and the MRT inf [4, 13] was 0.79 h. For the same compound, the MRT inf [4, 14] was 0.73 h, the bioavailability ([4]; Sprague-Dawley, rat, plasma, oral, F (absolute bioavailability), rats, allopurinol gavage 50 mg/kg vs intravenous 5 mg/kg) was roughly 314% and the AUC(0-t) ([4]; Sprague-Dawley, rat, plasma, po, 50 mg/kg, AUC(0-t), rats, allopurinol gavage 50 mg/kg, Average) was 6470 ng·h/mL. The AUC(0-t) ([4]; Sprague-Dawley, rat, plasma, po, 50 mg/kg, AUC(0-t), rats, allopurinol gavage 50 mg/kg, individual rats) was 6290 ng·h/mL, the AUC(0-inf) [4, 15] was roughly 6580 ng·h/mL and the AUC(0-inf) [4, 16] was 6430 ng·h/mL. For the same compound, the Cmax [4, 15] was roughly 1350 ng/mL, the Cmax [4, 16] was 1310 ng/mL and the MRT inf [4, 15] was 2.5 h. The MRT inf [4, 16] was 2.06 h, the Tmax [4, 15] was 1 to 2 h and the Tmax [4, 16] was 2 h. The V/F ([4]; rats, allopurinol gavage 50 mg/kg, Average) was 14.28 L/kg, the T max ([4]; rats, allopurinol gavage 50 mg/kg, Average, 50 mg/kg) was 1.33 h and the “AUC(0-t)” value [4, 17] was 6,239.00 h·µg/L and 6,870.26 h·µg/L. For the same compound, the “AUC(0-∞)” value [4, 17] was 6,374.71 h·µg/L and 6,922.57 h·µg/L, the C max [4, 17] was 1,440.00 µg/L and 1,310.00 µg/L and the “MRT(0-∞)” value [4, 17] was 2.68 h and 2.75 h. For the same compound, the V/F [4, 17] was 15.75 L/kg and 15.77 L/kg and 11.31 L/kg, the V ([4]; rats, allopurinol intravenous 5 mg/kg, Average) was 19.62 L/kg and the “AUC(0-t)” value [4, 18] was 186.21 ng·h/mL and 225.15 ng·h/mL. For the same compound, the “AUC(0-∞)” value [4, 18] was 207.21 µg·h/L and 250.23 µg·h/L, the “C0” value [4, 18] was 223.22 ng/mL and 281.70 ng/mL and the “MRT(0-∞)” value [4, 18] was 0.81 h and 0.83 h. The V [4, 18] was 20.68 L/kg and 20.60 L/kg and 17.58 L/kg, the “CASPASE protein expression, band value” [5] was 147.442 and 190.729 and 189.372 and the “asc protein expression, band value” [6] was 163.648 and 185.065 and 186.261. The “XOD activity in AML12 cells” value [7] was “significantly downregulate”, the “xod protein expression, band value” ([8]; AML12, 阳性 = allopurinol 100 µmol/L, replicates 1-3) was 155.965 and 209.523 and 140.271 and the “XOD protein expression in AML12 cells” value ([8]; HUA cell model, allopurinol 100 µmol/L, vs model group) was “significantly downregulate”. The “OAT1 protein expression, band value” [9] was 174.983 and 217.222 and 169.712, the “OAT1 protein expression in kidney” value [10] was “did not show significant effects” and the “OAT3 protein expression in kidney” value [11] was “did not show significant effects”. For the same compound, the “OAT3 protein expression, band value” [12] was 160.43 and 183.946.
